Data taken from patent US20240197728A1, “METHODS AND PHARMACEUTICAL COMPOSITIONS FOR TREATING REFRACTORY EPILEPSY” (INSERM (INSTITUT NATIONAL DE LA SANTÉ ET DE LA RECHERCHE …, priority 2021, published 2024).

Assays:
Type in all cases: cell-based, rat
[1] = tested on: SPAK; experiment: Immunoblot of SPAK phosphorylation and expression in hippocampo-cortical slices; conditions: vs DMSO
Protocol: (§1) For all experiments on hippocampal cultures, neurons were pre-incubated for 2 hours with either DMSO, PCPZ or CLP257 in a CO2 incubator set at 37° C. Drugs were added directly to the culture medium. For electrophysiology experiments, neurons were also recorded in presence of these drugs in the bath. For biochemistry experiments on rat hippocampo-cortical slices, slices were incubated with either DMSO (vehicle), CLP257, PCPZ, WNK463 or sodium orthovanadate for 2 hours in interface chambers set at 37° C. For human tissue experiments, slices were pre-incubated with either DMSO, CLP257 or PCPZ for 2 hours in interface chambers set at 37° C. and then also recorded in presence of these compounds.
(§2) 8-weeks old Sprague Dawley male rats were anesthetized by intraperitoneal ketamine/xylazine injection (120/10 mg/kg) and perfused transcardially with ice-cold (0-4° C.), oxygenated solution (O2/CO2 95/5%), containing (in mM): N-methyl-d-glucamine 93, KCl 2.5, NaH2PO4 1.2, NaHCO330, HEPES 20, D-glucose 20, ascorbic acid 5, sodium pyruvate 3, MgSO4 10 and CaCl2) 0.5 (300-310 mOsm, pH7.4). Brains were removed and transverse hippocampo-cortical slices (400 m thick) were prepared in the same solution using a vibratome (HM650V, Microm). Slices were then incubated for 2-hours with DMSO, the KCC2 enhancers (CLP257, PCPZ, WNK43) or sodium orthovanadate in an interface chamber containing artificial cerebrospinal fluid (ACSF) composed of (in mM): D-glucose 10, KCl 3.5, NaHOC3 26, NaH2PO4 1.25, NaCl 126, CaCl2) 1.6 and MgCl2 1.2 (290 mOsm), equilibrated with 5% CO2 in 95% 02. After the treatments, slices were washed with cold PBS, instantaneously frozen with liquid nitrogen and stored at −80° C.
(§3) Slices were mechanically lysed on ice, using a 2 mL Dounce, in a buffer containing (in mM): Tris/HCl, pH 7.5 50, EGTA 1, EDTA 1, sodium orthovanadate 1, sodium-B-glycerophosphate 10, sodium fluoride 50, sodium pyrophosphate 5, sucrose 270, benzamidine 1, phenylmethylsulfonyl fluoride 2, Triton […], (v/v) 2-mercaptoethanol 0.1% and protease inhibitors (Roche). After complete homogenization, samples were centrifuged (16,000×g at 4° C. for 10 min) and the supernatant was collected. Protein quantification was done using Pierce BCA Protein Assay kit (Thermo Scientific) with BSA as standard.
Samples were subjected to electrophoresis on polyacrylamide gradient gels (4-12% bis-tris gels) and transferred to nitrocellulose membranes. Membranes were rinsed with TBS-tween solution (TBST; Invitrogen) and blocked with 5% (w/v) skim milk. […] Fluorescence was detected and the relative intensities of immunoblot bands were determined using Odyssey infrared imaging system (LI-COR Bioscience). […]

[2] = tested on: OSR1; experiment: Immunoblot of OSR1 phosphorylation and expression in hippocampo-cortical slices; conditions: vs DMSO
Protocol: as §1, §2, §3
Samples were subjected to electrophoresis on polyacrylamide gradient gels (4-12% bis-tris gels) and transferred to nitrocellulose membranes. Membranes were rinsed with TBS-tween solution (TBST; Invitrogen) and blocked with 5% (w/v) skim milk. The membranes were then immunoblotted in 5% (w/v) skim milk in TBST with a primary antibody against KCC2 (rabbit, 07-432; Millipore; 1:1000), or phosphotyrosine (mouse, clone 4G10, Millipore, 1:1000), and a mouse primary antibody against neuron-specific beta-III tubulin overnight at 4° C. (clone 2G10; T8578; Sigma-Aldrich; 1:1000). They were then washed three times with distillated water, three times with TBST-milk solution and incubated for one hour at RT with goat secondary antibodies anti-rabbit IRDye 800 (1:3000; LI-COR), goat anti-mouse IRDye 700 (1:3000; LI-COR) or donkey anti-sheep DyLight 800 (1:3000; Rockland). Membranes were then washed again with TBST three times and one time with TBS. Fluorescence was detected and the relative intensities of immunoblot bands were determined using Odyssey infrared imaging system (LI-COR Bioscience). […]

[3] = tested on: KCC2; experiment: Immunoprecipitation/immunoblot of KCC2 phosphorylation and expression in hippocampo-cortical slices; conditions: for change of total KCC2 expression: slices; for change of total KCC2 expression / change of KCC2 phosphorylation at S940 / change of KCC2 phosphorylation at T906 / change of KCC2 phosphorylation at T1007: vs DMSO
Protocol: as §1, §2, §3
The following phosphorylation site-specific antibodies: anti-KCC3A phospho Thr1048 (0.35 mg/ml, sheep, [S0961C] 1st bleed, Dundee), anti-KCC3A phospho Thr 991 (0.26 mg/ml, sheep, [S959C] 1st bleed, Dundee) were first incubated for 30 min at 4° C. with the corresponding non-phosphorylated peptide (10 mg/ml, Dundee).
Phospho-antibodies or anti-KCC2 antibodies (07-432; Millipore) were then coupled with protein-G-Sepharose (4 Fast Flow; Sigma-Aldrich) at a ratio of […] of antibody per 100 μl of beads, for 2 h at 4° C. without agitation. 1.5 mg of clarified cell lysate was incubated with the antibody-coupled bead suspension, overnight at 4° C. under gentle agitation. The supernatant was collected after centrifugation and beads were washed twice with NaCl solution (0.25M NaCl in 1×PBS) and twice with PBS alone. Bound proteins were eluted with 2×LDS sample buffer (Invitrogen) containing 0.5% (v/v) 2-mercaptoethanol and denaturated at 75° C. for 20 min (IP with phospho-antibodies) or 37° C. for 1 h (IP with anti-KCC2 antibodies) before centrifugation (13,000×g at 4° C. for 15-20 min).
Samples were subjected to electrophoresis on polyacrylamide gradient gels (4-12% bis-tris gels) and transferred to nitrocellulose membranes. Membranes were rinsed with TBS-tween solution (TBST; Invitrogen) and blocked with 5% (w/v) skim milk. The membranes were then immunoblotted in 5% (w/v) skim milk in TBST with a primary antibody against KCC2 (rabbit, 07-432; Millipore; 1:1000), or phosphotyrosine (mouse, clone 4G10, Millipore, 1:1000), and a mouse primary antibody against neuron-specific beta-III tubulin overnight at 4° C. (clone 2G10; T8578; Sigma-Aldrich; 1:1000). […]

[4] = tested on: extrasynaptic GABAA receptors; experiment: GABAA receptor-mediated currents evoked by focal isoguvacine or RubiGABA uncaging

Compound: O=C1N=C(N2CCCCN2)S/C1=C\c1ccc(F)cc1O [CLP257, (5Z)-5-[(4-Fluoro-2-hydroxyphenyl)methylene]-2-(tetrahydro-1-(2H)-pyridazinyl)-4(5H)-thiazolone]
- change of SPAK phosphorylation (S373 residue) ([1]; 100 μM CLP257, 2 h): +33.30±24.00%
- change of total expression of SPAK ([1]; 100 μM CLP257, 2 h): −5.97±17.4%
- change of OSR1 phosphorylation (S325 residue) ([2]; 100 μM CLP257, 2 h): +11.50±18.50%
- change of total expression of OSR1 ([2]; 100 μM CLP257, 2 h): −2.24±8.27%
- change of tyrosine phosphorylation of KCC2 ([3]; 100 μM CLP257, 2 h): +19.00±15.00%
- change of total KCC2 expression ([3]; 100 μM CLP257, 2 h): −6.92±11.80%
- change of KCC2 phosphorylation at S940 ([3]; 100 μM CLP257, 2 h): −19.70±34.40%
- change of KCC2 phosphorylation at T906 ([3]; 100 μM CLP257, 2 h): −12.70±10.90%
- change of KCC2 phosphorylation at T1007 ([3]; 100 μM CLP257, 2 h): −18.50±17.10%
- decay time constant of GABAA receptor-mediated currents ([4]; 100 μM CLP257, RubiGABA 30 μM, control 124.39±9.12): 218.22 ± 21.05 ms
- amplitude of GABAA receptor-mediated currents ([4]; 100 μM CLP257, RubiGABA 30 μM, control 164.70±4.56): 162.04±6.62 pA

Compound: CN1CCN(CCCN2c3ccccc3Sc3ccc(Cl)cc32)CC1 [PCPZ, prochlorperazine]
- change of SPAK phosphorylation (S373 residue) ([1]; 10 μM PCPZ, 2 h): +36.90±48.40%
- change of OSR1 phosphorylation (S325 residue) ([2]; 10 μM PCPZ, 2 h): +11.80±23.50%
- change of total expression of OSR1 ([2]; 10 μM PCPZ, 2 h): +26.3±12.8%
- change of tyrosine phosphorylation of KCC2 ([3]; 10 μM PCPZ, 2 h): +6.38±14.7%
- change of total KCC2 expression ([3]; 10 μM PCPZ, 2 h): +12.1±32.8%
- change of KCC2 phosphorylation at S940 ([3]; 10 μM PCPZ, 2 h): +20.30±18.70%
- change of KCC2 phosphorylation at T906 ([3]; 10 μM PCPZ, 2 h): −10.20±10.40%
- change of KCC2 phosphorylation at T1007 ([3]; 10 μM PCPZ, 2 h): +26.40%±17.00
- decay time constant of GABAA receptor-mediated currents ([4]; acute 10 μM PCPZ, isoguvacine 100 μM, control 127.66±10.23): 130.81 ± 10.48 ms
- amplitude of GABAA receptor-mediated currents ([4]; acute 10 μM PCPZ, isoguvacine 100 μM, control 150.73±17.50): 157.51±25.46 pA
